Source: patent US20130210755A1, “METHODS FOR INHIBITING INSECT INFESTATIONS” (ELI LILLY AND COMPANY, priority 2010, published 2013)

Assays:
Format in all cases: in vivo
[1] = tested on: stable fly (Stomoxys calcitrans); assay: Fecal bioassay: emergence of adult stable flies from manure of horses given oral spinosad feed-through
Experimental: (§1) A study was conducted to evaluate the efficiency of oral spinosad feed-through for controlling development of immature stages of the house fly (Musca domestica) and stable fly (Stomoxys calcitrans) in the manure of treated horses. There were five treatment groups, having three horses each. Treatment groups 1-4 were administered the following pellet formulation: […]
(§2) Treatment groups 1-4 were provided the test substance top-dressed onto feed supplement and fed at a rate to deliver a dose, respectively, of approximately 0.6, 0.8, 1.0, and 1.2 mg spinosad/kg body weight/day, daily for the duration of the study. Treatment group 5 was the negative control group and was fed the above formulation without spinosad, and each horse in this treatment group received one ounce (28.3 g) of the negative control substance.
(§3) Fecal samples from the three horses in each treatment group were collected on study days—1, 3, 10, and 17, and bioassayed with eggs of house flies and stable flies, and the number of adult flies that emerged from the fecal sample bioassays were determined. The concentration of spinosyn A in the fecal samples was also determined.
(§4) Another study was carried out, similar to the above study, with a few changes. There were three spinosad administered groups, with the rates of spinosad being 0.4, 0.5, and 0.6 mg spinosad/kg of body weight. There was a positive control group, administered between 0.6 and 0.7 mg cyromazine/kg of body weight. There was also a negative control group.

[2] = Concentration of spinosyn A in fecal samples of treated horses
Experimental: as §2, §3, §4

[3] = Observed adverse effects in horses under feed-through administration
Experimental: as §1, §2, §4

[4] = tested on: house fly (Musca domestica); assay: Fecal bioassay: emergence of adult house flies from manure of horses given oral spinosad feed-through
Experimental: as §1, §2, §3
Another study was carried out, similar to the above study, with a few changes. There were three spinosad administered groups, with the rates of spinosad being 0.4, 0.5, and 0.6 mg spinosad/kg of body weight. […]

[5] = tested on: horn flies (Haematobia irritans); assay: Orally administered spinosad to control horn flies on cattle; settings: flies remaining after 24 hours exposure
Experimental: A study was conducted to evaluate the efficacy of orally administered spinosad to control horn flies (Haematobia irritans), an obligate ectoparasite of cattle. A liquid spinosad formulation was topically applied to a palatable feed ration and fed to cattle at doses of 0.03, 0.10, 0.30 and 3.0 mg/kg of body weight. The number of horn flies remaining after 24 hours exposure to the cattle in an enclosed room was determined on test days 2, 4, 9, 11, 16, 18, 23 and 25 and was compared to the number remaining for the control group. The percent reduction in horn flies was notable for the 0.30 and 3.0 mg/kg test groups.

| Compound | Reduction of the emergence of stable flies ([1]; second study, horses, 0.6-0.7 mg cyromazine/kg) | reduction in stable fly emergence ([1]; first study, 0.6 mg spinosad/kg of body weight group, study day 17 fecal sample collection) | Reduction in emergence of stable fly adults ([1]; first study, horses, all 4 spinosad treatments (0.6-1.2 mg/kg/day) at all three post-administration collections, with one exception) | reduction in stable fly emergence ([1]; second study, 0.4 mg spinosad/kg of body weight group, study day 10 fecal sample collection) | Reduction of the emergence of stable flies ([1]; second study, horses, all three spinosad groups (0.4, 0.5, 0.6 mg/kg), with one exception) | mean spinosyn A concentration in fecal samples ([2]; first study, 0.6 mg spinosad/kg of body weight group, all three animals) | mean spinosyn A concentration in fecal samples ([2]; first study, 0.8 mg spinosad/kg of body weight group, all three animals) | mean spinosyn A concentration in fecal samples ([2]; first study, 1.2 mg spinosad/kg of body weight group) | concentration of spinosyn A in fecal samples (lowest single sample) ([2]; first study, one horse, 0.6 mg spinosad/kg group, study day 3) | concentration of spinosyn A in fecal samples (highest single sample) ([2]; first study, one horse, 1.2 mg spinosad/kg group, study day 10) | mean spinosyn A concentration in fecal samples ([2]; second study, 0.4 mg spinosad/kg group, all three animals, all three post-administration dates) | mean spinosyn A concentration in fecal samples ([2]; second study, 0.5 mg spinosad/kg group, all three animals, all three post-administration dates) | mean spinosyn A concentration in fecal samples ([2]; second study, 0.6 mg spinosad/kg group, all three animals, all three post-administration dates) | adverse effects ([3]; first study, horses, 0.6-1.2 mg spinosad/kg body weight/day, daily for the study) | adverse effects ([3]; second study, horses, 0.4, 0.5, 0.6 mg spinosad/kg) | effective in preventing emergence of adult house flies ([4]; first study, all 4 groups (0.6, 0.8, 1.0, 1.2 mg spinosad/kg body weight/day), all three post-administration collection days (3, 10, 17)) | efficacy in preventing emergence of adult house flies ([4]; second study, all three spinosad groups (0.4, 0.5, 0.6 mg/kg), all three fecal sample collection dates) | percent reduction in horn flies vs control group ([5]; oral 0.30 mg/kg in feed, from day 9 and on) | percent reduction in horn flies vs control group ([5]; oral 3.0 mg/kg in feed, all time points (days 2-25)) |
| --- | --- | --- | --- | --- | --- | --- | --- | --- | --- | --- | --- | --- | --- | --- | --- | --- | --- | --- | --- |
| Nc1nc(N)nc(NC2CC2)n1 [cyromazine] | 100% | – | – | – | – | – | – | – | – | – | – | – | – | – | – | – | – | – | – |
| spinosad | – | 97.25% | 100% | 99.3% | 100% | 3.4 ppm | 2.9 ppm | 5.5 ppm | 0.9 ppm | 8.6 ppm | 2.2 ppm | 3.2 ppm | 3.7 ppm | no observed adverse effects | no observed adverse effects | 100% | 100% | at least 63.3% | at least 89.2% |
